Experimental data published in patent US20210113687A1, “METHODS FOR TREATING INFLAMMATION” (NEW YORK UNIVERSITY, priority 2013, published 2021).

Legend:
[1] = test system: human Netrin-1 promoter luciferase reporter construct; experiment: Netrin-1 promoter-luciferase assay in HEK293T; format: cell-based; conditions: BAY 11-7082 20 μM pretreatment
Experimental: Netrin-1 Promoter-Luciferase MMV HEK293T were transfected with a human Netrin-1 promoter luciferase reporter construct (SwitchGear Genomics) using Lipofectamine™ 2000 (Invitrogen). After transfection, media was changed and cells were pretreated with the NFKB inhibitor BAY 11-7082 (20 μM) for 1 hour prior stimulation with 100 μg/ml oxLDL or PBS as a control for 24 hours. Luciferase activity was assessed using the Dual-Glo Luciferase Assay System (Promega) and normalized to a constitutively expressed Renilla reporter.

[2] = test system: human NTNI promoter-luciferase reporter; experiment: NTN1 promoter-luciferase assay (Example 4); format: cell-based; conditions: pretreating with NFkB inhibitor
Experimental: (§1) Promoter-Luciferase assays. HEK293T cells were transfected with human NTNI or Unc5H2 promoter-luciferase reporter constructs (SwitchGear Genomics) using Lipofectamine™ 2000 (11668-019, Invitrogen) After transfection, media was changed and cells were treated with palmitate or BSA for 24 hours, in the presence or absence of the NFkB inhibitor BAY 11-7082 (10 μmol/L). Luciferase activity was measured using the DUAL-Glo Luciferase Assay system (E1910, Promega).

[3] = test system: human Unc5H2 promoter-luciferase reporter; experiment: Unc5H2 promoter-luciferase assay (Example 4); format: cell-based; conditions: pretreating with NFkB inhibitor
Experimental: as §1

[4] = test system: BMDM; experiment: netrin-1 ELISA of BMDM supernatants; format: cell-based, mouse; conditions: blocking NFkB
Experimental: (§2) Cell culture. Primary bone marrow derived macrophage (BMDM) was prepared by flushing the bone marrow of the tibia and femur of 6-8 week old C57/B6 mice. The cells were grown in DMEM supplemented with 15% L929-conditioned media, 10% FBS and 1% penicillin/streptomycin for 7 days. BMDM were stimulated 250 pM palmitate conjugated with BSA or BSA as a control for 24 hours, or TNFα (10 ng/ml, 410-MT-010; R&D systems), IL-6 (40 nglml, 406-ML-005; R&D systems) and IL-4 (1 Onglml, 404-ML-010; R&D systems) for 24 h. In some assays, differentiated BMDM were treated with conditioned media from 3T3-L1 adipocytes differentiated as described (Lin, et al., J Biol Chem, 2005; 280:4617-4626) and treated with 250 pM palmitate conjugated with BSA or BSA for 24 hours. In certain experiments, anti-TNFα (0.4 μg/ml, AF-410-NA, R&D systems) or anti-IL-6 (0.025 μg/ml, MAB406; R&D systems) blocking antibody or IgG control (Normal Goat IgG: AB-108-C, Rat IgG1: MAB005; R&D systems) was added to conditioned media. […]
ELISA assay. Insulin (90080; crystal Chem Inc), adiponectin (ab108785; Abeam), FFA (SFA-1; Zen Bio), TNFa (88-7064-76; ebiosciences) and netrin-1 (E91827Mu; USCN life science Inc) levels were measured in the serum using mouse standards according to manufacturer's guidelines. Netrin-1 in human serum was measured using a human-specific netrin-1 ELISA from USCN Life Science Inc (700176; mybiosource).

[5] = test system: Human NTN1 promoter-luciferase reporter; experiment: NTN1 promoter luciferase assay (Example 2); format: cell-based
Experimental: (§3) Human NTN1 or UNC5B promoter-luciferase reporter plasmids (Switchgear Genomics) were transfected into HEK293T using Lipofectamine™ 2000 (11668-019, Invitrogen). After transfection, media was changed and cells were treated with oxLDL (50 μg/ml) or CoCl2 (0.1 mM), or DMOG (1 mmol/1) for 24 hours, in the presence or absence (PBS control) of inhibitors of NFκB (10 μmol/L Bay11-7082) or HIF1α (100 μmol/L HIF-1α inhibitor). Luciferase activity was measured using foe DUAL-Glo Luciferase Assay system (E1910, Promega) and normalized to a constitutively expressed renilla reporter or to protein concentration.

[6] = test system: Human UNC5B promoter-luciferase reporter; experiment: UNC5B promoter luciferase assay (Example 2); format: cell-based; conditions: treatment with HIF-1α inhibitor
Experimental: as §3

[7] = test system: BMDMs; experiment: Apoptotic assays of growth-factor deprived BMDM (TUNEL, active caspase-3); format: cell-based, mouse
Experimental: To induce apoptosis, BMDMs were grown in foe absence of L929 conditioned media (CM) for 3 days under normoxic or hypoxic conditions. In some assays, cells were treated with 100 μmol/L HIF-1α inhibitor or Unc5b-FC fragment or control IgG. After treatment, apoptotic cells were labeled with PE-active caspase-3 (557091, BD pharmingen) or by the TUNEL method using an in situ cell detection kit (Roche Diagnostics). Active Caspase-3, TUNEL and DAPI staining were analyzed with a Nikon Eclipse fluorescent microscope. Only TUNEL positive cells that colocalized with DAPI stained nuclei were considered apoptotic.

[8] = test system: BMDMs; experiment: qPCR of macrophages under hypoxic stress; format: cell-based, mouse
Experimental: Primary bone marrow derived macrophage (BMDM) were prepared by flushing the bone marrow of the tibia and femur of 6-8 week old C57/B6 mice as described (The cells were grown in DMEM supplemented with 15% L929-conditioned media, 10% FBS and 1% penicillin/streptomycin for 7 days and then treated with oxLDL or subjected to hypoxic conditions. Hypoxic incubations were carried out at 37° C. in a Billups-Rothenberg modular incubator chamber at 1% O2, 5% CO2 and 94% N2 for 24 hours. J774 control (J774con) and HIF-1α overexpressing (J774Hif) macrophages (Parathath et al., Circ. Res. 2011; 109:1141-1152) were grown in 5.5 mmol/L glucose containing DMEM supplemented with 15% FBS and 1% penicillin/streptomycin.
Total RNA was isolated using TRIZOL reagent and RNA ([…]) was reverse transcribed with an iScript cDNA Synthesis kit according to the manufacturer's instructions (Bio-Rad). RT-PCR analysis was performed using iQ SYBR green Supermix (Biorad) and a Mastercycler Realplex (Eppendorf) as we described (van Gils et al., Nat Immunol, 2012; 13:136-143). The change in mRNA expression was calculated by the comparative change-in-cycle-method (DDCT) relative to GAPDH mRNA levels. The following primer sets were used;

[9] = test system: mouse peritoneal macrophages; experiment: Migration assay of peritoneal macrophages (pMø); format: cell-based; conditions: for inhibitory effect of netrin-1 on CCL19-induced migration: macrophages pre-incubated with agent
Experimental: Migration assays. Chemotaxis of macrophages (pMø, RAW264.7) and CaSMC was measured in 96-well Boyden chamber with a 5 μm (macrophages) or 8 μm pore size filter (CaSMC) (Neuro Probe) as previously described (Ly, et al., Proc Natl Acad Sci USA, 2005, 102: 14729-14734). Macrophage chemotaxis was also quantified using a Real-time Cell Invasion and Migration (RT-CIM)×Celligence assay system with monitoring every 5 min (Roche Applied Science). […] In some assays, cells were pretreated with netrin-1 or UNC5b blocking antibody (AF1006, R&D Systems) or Neogenin blocking antibody (Santa Cruz, sc-6537) or control goat IgG (Santa Cruz) for 1 hour prior to migration. Following cell migration for 3 or 16 hours (CaSMC and macrophages, respectively), four random high power fields from each well were counted to determine the number of cells that had migrated into the lower chamber. Migration was expressed as chemotactic index, which was calculated by dividing the number of migrating cells in the treated groups by the number of migrating cells in the lowest control well. Results of chemotaxis assays are representative of at least three independent experiments performed on triplicate samples.

[10] = test system: Rac1; experiment: Rac1 activation assay; format: cell-based, mouse; conditions: MCP-1 stimulation, within 5 minutes
Experimental: Rac1 activation assays Peritoneal macrophages were seeded in a 6-well plate overnight in regular growth media. The cells were stimulated with MCP-1 (10 ng/ml R&D systems) for 5 minutes with or without a pretreatment with mouse recombinant netrin-1 (250 ng/ml, R&D Systems) for 30 minutes. At the end of stimulation the cells were lysed and Rac1-GTP levels were measured using Rac1 Activation Assay (Cell Biolabs) according manufacturer's instructions.

[11] = test system: BMDM; experiment: qRT-PCR of BMDM (palmitate, cytokines, adipocyte conditioned media); format: cell-based, mouse; conditions: direct addition of cytokine
Experimental: Real-time Quantitative RT-PCR Analysis RNA (0.5-1 μg) was reverse transcribed using iScript™ cDNA Synthesis Kit (Biorad) and RT-PCR analysis was conducted using kapa SYBR green Supermix (kappa syber) and a Mastercycler Realplex (Eppendorf) the primers used are listed. Fold change in mRNA expression was calculated using the comparative cycle method (ΔΔCt).
Cell culture. Primary bone marrow derived macrophage (BMDM) was prepared by flushing the bone marrow of the tibia and femur of 6-8 week old C57/B6 mice. The cells were grown in DMEM supplemented with 15% L929-conditioned media, 10% FBS and 1% penicillin/streptomycin for 7 days. BMDM were stimulated 250 pM palmitate conjugated with BSA or BSA as a control for 24 hours, or TNFα (10 ng/ml, 410-MT-010; R&D systems), IL-6 (40 nglml, 406-ML-005; R&D systems) and IL-4 (1 Onglml, 404-ML-010; R&D systems) for 24 h. In some assays, differentiated BMDM were treated with conditioned media from 3T3-L1 adipocytes differentiated as described (Lin, et al., J Biol Chem, 2005; 280:4617-4626) and treated with 250 pM palmitate conjugated with BSA or BSA for 24 hours. In certain experiments, anti-TNFα (0.4 μg/ml, AF-410-NA, R&D systems) or anti-IL-6 (0.025 μg/ml, MAB406; R&D systems) blocking antibody or IgG control (Normal Goat IgG: AB-108-C, Rat IgG1: MAB005; R&D systems) was added to conditioned media. Peritoneal macrophages were isolated as described (van Gils, et al., Nat Immunol, 2012; 13:136-143). Mice were injected intraperitoneally with 1 ml of 3% (wt/vol) thioglycolate to elicit sterile sterile peritonitis with macrophage numbers peaking on day 4. Cells were collected by lavage and used for migration assays.
Palmitate-BSA preparation. Sodium palmitate (P9767; Sigma Aldrich) was dissolved in sterile water in to make a 100-mM solution by alternating heating and vortexing until the palmitate was dissolved. Thu occurred once the solution reached 70 C. […]

[12] = test system: peritoneal macrophages; experiment: Migration of palmitate-treated peritoneal macrophages to CCL19; format: cell-based, mouse; conditions: addition of Unc5b-FC
Experimental: as §2, with “media. Peritoneal macrophages were isolated as described (van Gils, et al., Nat Immunol, 2012; 13:136-143).” for “media.”
Migration. The migration of ATM or peritoneal macrophages to CCL19 (500 ng/ml; R&D Systems) was assessed by the xCelligence Real-time Cell Invasion and Migration system (ACEA biosciences Inc) that monitored chemotaxis every 5 minutes for over 6 h. […]

[13] = test system: J774Hif macrophages; experiment: J774 macrophage migration (xCelligence); format: cell-based, mouse; conditions: treated with Unc5b-FC, no exogenous chemokine
Experimental: (§4) Macrophage chemotaxis was measured using the Real-Time Cell Invasion and Migration xCelligence Assay System with monitoring every 3 min (Roche Applied Science). BMDM migration towards MCP-1 (100 ng/ml; R&D Systems) was measured in the presence or absence of oxLDL (50 μg/ml) and/or recombinant rat UNC5b-Fc chimera (1006-UN; R&D Systems) to block the effects of netrin-1. In a subset of experiments, cells were pre-treated with 0.1 mmol/L CoCl2 for 1 h prior to migration. J774 macrophage migration was carried out in the presence or absence of UNC5b-Fc chimera. Results of chemotaxis assays are representative of at least three independent experiments performed on triplicate samples.

[14] = test system: BMDM; experiment: BMDM migration towards MCP-1 (xCelligence); format: cell-based, mouse; conditions: treatment with Unc5b-FC
Experimental: as §4

Cc1ccc(S(=O)(=O)/C=C/C#N)cc1 [BAY 11-7082]
oxLDL induction of netrin-1 promoter activity [1]: inhibited

CC(C)(C)c1ccc(S(=O)(=O)/C=C/C#N)cc1 [BAY 11-7085]
palmitate-induced Ntn1-promoter luciferase activity [2]: inhibited, in part | palmitate-induced Unc5b-promoter luciferase activity [3]: inhibited, in part | palmitate-induced secretion of netrin-1 by BMDM [4]: inhibited, in part

COC(=O)CNC(=O)C(=O)OC [DMOG, dimethyloxalylglycine]
Ntn1 promoter activity ([5]; HEK293 cells): potently induced

COC(=O)c1ccc(O)c(NC(=O)COc2ccc(C34CC5CC(CC(C5)C3)C4)cc2)c1 [HIF-1α inhibitor]
oxLDL-induced increase in Unc5b promoter activity [6]: abrogated | protection from apoptosis (TUNEL) under hypoxic conditions ([7]; growth-factor deprived BMDM, HIF-1α inhibitor): reversed | oxLDL-induced Unc5b mRNA in BMDM ([8]; HIF-1α inhibitor): required HIF-1α activity | Unc5b mRNA in response to low oxygen concentration, CoCl2 or DMOG ([8]; pre-treated with HIF-1α inhibitor): no upregulation of Unc5b | increase in Ntn1 mRNA under hypoxia, CoCl2, DMOG or oxLDL ([8]; pretreatment with HIF-1α inhibitor): blocked | oxLDL- and DMOG-induced increase in Ntn1 promoter activity ([5]; presence or absence of HIF-1α inhibitor): dependent on HIF-1α activity

Cn1c(=O)c2nc(-c3ccccc3)[nH]c2n(C)c1=O [inhibitor of the A2B adenosine receptor]
inhibitory effect of netrin-1 on CCL19-induced migration [9]: no change

MCP-1: chemokine MCP-1 (R&D Systems)
levels of activated Rac1 [10]: approximately 3 fold

TNFα
Ntn1 mRNA in BMDMs [11]: increased Ntn1 mRNA

UNC5b-Fc: recombinant rat UNC5b-Fc chimera (cat #1006-UN, R&D Systems) to block the effects of netrin-1
TUNEL and active caspase-3 staining under hypoxic conditions ([7]; growth factor deprived macrophages, Unc5b-FC): increased TUNEL and active caspase-3 staining similar to normoxic controls | migration of palmitate-treated macrophages to CCL19 [12]: restored | migration of J774-HIF cells [13]: comparable to control J774 macrophages | inhibition of migration to CCL19 by conditioned medium from oxLDL-treated macrophages ([9]; addition of recombinant UNC5b-Fc): reversed | inhibitory effect of netrin-1 on CCL19-induced migration [9]: reversed the inhibitory effect of netrin-1 | CoCl2 impairment of macrophage migration to MCP-1 [14]: reversed this effect
